Measurements taken from patent US20030157040A1, “Use of ectoine or ectoine derivatives in cosmetic formulations” (Merck Patent GmbH, priority 1998, published 2003).
“And” between values parts separate entries of the source, which are not always exact repeats. Equal entries are not always repeated. “Also recorded” adds a separate entry of the source.

Test system: organotypical skin equivalents (Skinethic)
Assay: UV-induced formation of "sunburn cells" in organotypical skin equivalents
Assay type: cell-based
Conditions: for Number of counted "sunburn cells" in individual sections of the UV-irradiated skin equivalents / Number of counted "sunburn cells", mean M of six sections: pretreatment 24 h with ectoin 4%; for Number of counted "sunburn cells" in individual sections of the UV-irradiated skin equivalents: individual section
Protocol: An investigation is carried-out to determine whether ectoin has an inhibiting action on the UV-induced formation of “sunburn cells” in organotypical skin equivalents.
The investigations are carried out in accordance with the method described in A. R. Young, ‘The sunburn cell’, Photodermatology 4 (1987) 127-134. The cells used are organotypical skin models. Skinethic® skin equivalents from Skinethic, Nice, France (Lot. No. PK 2 DT 07 99 022A 0603) are used. Ectoin is weighed in directly prior to the start of the test and dissolved in the use concentration of 4% in EBSS (Gibco BRL; Order No. 15015 044). The organotypical skin equivalents (Skinethic) are, depending on the treatment group, incubated for 24 hours with or without ectoin (4%) at 37° C. and 5% CO2. The two treatment groups are then subjected to UV irradiation (0, 30, 60, 100, 200, 300 mJ/cm^2 of UVB) using a sun simulator (SOL 500, Dr. Hönle). Following incubation for a further 24 hours at 37° C. and 5% CO2, all skin equivalents are prepared histologically and investigated for induced “sunburn cells”.

In the case of `CC1=N[C@H](C(=O)O)CCN1` [ectoin, (S)-1,4,5,6-tetrahydro-2-methyl-4-pyrimidine-carboxylic acid], the “Number of counted "sunburn cells" in individual sections of the UV-irradiated skin equivalents” value (shortened to “Number … of the UV-irradiated skin equivalents”) (irradiation 0 mJ/cm^2 UVB) is reported as 0, the “Number of counted "sunburn cells", mean M of six sections” value (“Number … of six sections” for short) (irradiation 0 mJ/cm^2 UVB, mean of six sections) is reported as 0.00 and the “Number … of the UV-irradiated skin equivalents” value (irradiation 30 mJ/cm^2 UVB) is reported as 1 (2×) and 2 (2×) and 3 and 0. For the same molecule, the “Number … of six sections” value (irradiation 30 mJ/cm^2 UVB, mean of six sections) was 1.50, the “Number … of the UV-irradiated skin equivalents” value (irradiation 60 mJ/cm^2 UVB) was 2 (2×) and 4 and 3 (3×) and the “Number … of six sections” value (irradiation 60 mJ/cm^2 UVB, mean of six sections (per section)) was 2.83±0.75 and 2.83. The “Number … of the UV-irradiated skin equivalents” value (irradiation 100 mJ/cm^2 UVB) was 9 (2×) and 10 (2×) and 8 (2×), the “Number … of six sections” value (irradiation 100 mJ/cm^2 UVB, mean of six sections (per section)) was 9±0.89 and 9.00 and the “Number … of the UV-irradiated skin equivalents” value (irradiation 200 mJ/cm^2 UVB) was 39 (2×) and 32 (2×) and 35 and 34. For the same molecule, the “Number … of six sections” value (irradiation 200 mJ/cm^2 UVB, mean of six sections (per section)) was 35.17±3.19 and 35.17, the “Number … of the UV-irradiated skin equivalents” value (irradiation 300 mJ/cm^2 UVB) was >100 (5×) and <100 and the “Number … of six sections” value (irradiation 300 mJ/cm^2 UVB, mean of six sections) was over 100. For the same molecule, the “dose-effect relationship between the rate of formation of SBCs and the administered UV dose” value (pretreatment with ectoin versus no pretreatment, 0-300 mJ/cm^2 UVB) was “shifted significantly to higher UV dose ranges; also recorded: significantly into higher UV dose ranges”.
